Results from article PMC11207335, “In Vitro Metabolism and Transport Characteristics of Zastaprazan” (Pharmaceutics, 2024).
Like-named read-outs stand apart in the source and are kept apart here.

What was measured:
CYP3A4 [1] = tested on: CYP3A4; parameters: method as in PMID 34072547; conditions: cited from earlier work
erosive esophagitis = tested on: erosive esophagitis; parameters: method as in PMID 36504556; conditions: 8-week treatment, patients with erosive esophagitis; cited from earlier work
[2] = parameters: method as in PMID 29863280, doi:10.1007/s11938-020-00330-x; conditions: no signs of hepatotoxicity; cited from earlier work
[3] = parameters: method as in PMID 16011666; conditions: cited from earlier work
esterase = conditions: 5 μM JP-1366, human liver microsomes
Description: The experimental protocols were performed in accordance with FDA guidelines and the previous reports with slight modifications. […] The reactions were stopped by adding 100 μL of lansoprazole (IS) in ice-cold acetonitrile (100 ng/mL).

porcine H^+/K^+-ATPase = target: porcine H^+/K^+-ATPase; parameters: method as in PMID 35745870, PMID 33355910; conditions: reversible inhibition; cited from earlier work
gastric pH [4] = tested on: gastric pH; parameters: method as in PMID 31437865; conditions: cited from earlier work
gastric pH [5] = tested on: gastric pH; parameters: method as in PMID 35146797; conditions: 50 mg of tegoprazan dose; cited from earlier work
CYP3A4 [6] = tested on: CYP3A4; parameters: method as in PMID 35745870; conditions: cited from earlier work
[7] = tested on: human, dog, monkey, mouse, and rat hepatocytes; assay: In vitro metabolic profiling of JP-1366 in hepatocytes; assay type: in vitro ADME; conditions: 10 µM JP-1366, 60 min; H human, D dog, Mk monkey, M mouse, R rat
Description: Cryopreserved human, dog, monkey, mouse, and rat hepatocytes were purified and recovered according to the manufacturer’s protocol. […] The metabolic reaction in each sample well was quenched by adding 120 μL of ice-cold acetonitrile.
MS spectra were obtained in positive-ion mode using electrospray ionization under optimized conditions as follows: capillary temperature, 350 °C; sheath gas flow rate, 40 (arbitrary units); aux gas flow rate, 10 (arbitrary units); and aux gas heater temperature, 350 °C. Full MS scan with data-dependent MS/MS was performed from m/z 100 to m/z 1000.

[8] = target: T1, human cDNA-expressed CYP2C9 (Homo sapiens, UniProt P11712); assay: Enzyme kinetics of JP-1366 metabolism in cDNA-expressed CYP2C9; assay type: in vitro ADME
T1 construct: purchased Corning Life Sciences
Description: (§1) The reaction was initiated by adding 5 μL of NADPH-generating system in triplicate, and the mixture was further incubated for 30 min at 37 °C in a shaking water bath.
(§2) The concentrations of the metabolites were quantitated, and their formation rates (pmol/mg protein/min) were calculated by dividing the amounts of metabolites formed from the incubation with human liver microsomes and human cDNA-expressed CYP or UGT enzymes by the incubation time.

[9] = target: T2, human cDNA-expressed CYP2C19 (Homo sapiens, UniProt P33261); assay: Enzyme kinetics of JP-1366 metabolism in cDNA-expressed CYP2C19; assay type: in vitro ADME
T2 construct: purchased Corning Life Sciences
Description: as §1, §2

[10] = target: T3, human cDNA-expressed CYP2D6 (Homo sapiens, UniProt P10635); assay: Enzyme kinetics of JP-1366 metabolism in cDNA-expressed CYP2D6; assay type: in vitro ADME
T3 construct: purchased Corning Life Sciences
Description: as §1, §2

[11] = target: T4, human cDNA-expressed CYP3A4 (Homo sapiens, UniProt P08684); assay: Enzyme kinetics of JP-1366 metabolism in cDNA-expressed CYP3A4; assay type: in vitro ADME
T4 construct: purchased Corning Life Sciences
Description: as §1, §2

[12] = target: T5, human cDNA-expressed CYP3A5 (Homo sapiens, UniProt P20815); assay: Enzyme kinetics of JP-1366 metabolism in cDNA-expressed CYP3A5; assay type: in vitro ADME
T5 construct: purchased Corning Life Sciences
Description: as §1, §2

[13] = tested on: human liver microsomes (HLM); assay: Enzyme kinetics of JP-1366 metabolism in human liver microsomes; assay type: in vitro ADME; conditions: for Vmax: formation of the labelled metabolite from JP-1366, HLM
Description: as §1, §2

CYP3A4/5 = assay: Combined contribution of CYP3A4/5 to formation of major JP-1366 metabolites; assay type: in vitro ADME, human; conditions: sum of CYP3A4 and CYP3A5 contributions
Description: as §1, §2

[14] = Apparent permeability in Caco-2 cells; assay type: in vitro ADME; conditions: human
Description: Caco-2 cells (passage no. 41–42) were grown in tissue culture flasks containing Dulbecco’s Modified Eagle Medium supplemented with 20% FBS, 1% nonessential amino acids, and 1% penicillin–streptomycin. […] The culture medium was replaced every other day. On the day of the experiment, the growth medium was discarded, and the attached cells were washed with prewarmed HBSS (pH 7.4) and preincubated with HBSS for 20 min at 37 °C. […] Aliquots (30 μL) of each sample were vortex-mixed with 90 μL of IS solution for 1 min, and then centrifugation was performed at 13,500 rpm at 4 °C for 5 min. Aliquots (5 μL) of the supernatant were injected into the LC-MS/MS for analysis.

[15] = cited from earlier work
gastric pH [16] = conditions: cited from earlier work; for % time pH > 4.0 over a period of 24 h: 40 mg dose group, healthy subjects
human liver microsomes = assay: JP-1366 metabolism in human liver microsomes with NADPH, with or without SKF-525A; assay type: in vitro ADME
[17] = tested on: human liver microsomes (HLM); assay: Enzyme kinetics of M1 glucuronidation to M15 in human liver microsomes; assay type: in vitro ADME; conditions: formation of M15 from M1, HLM
Description: (§3) By adding 5 μL of UDPGA (final concentration, 5 mM), the reaction was initiated, and the mixture was further incubated for 30 min at 37 °C in a shaking water bath. The reaction was terminated by adding 100 μL of ice-cold acetonitrile containing 5 ng/mL of lansoprazole (IS).
as §2

[18] = target: T6, human cDNA-expressed UGT2B7 (Homo sapiens, UniProt P16662); assay: Enzyme kinetics of M1 glucuronidation to M15 in cDNA-expressed UGT2B7; assay type: in vitro ADME; conditions: formation of M15 from M1, UGT2B7
T6 construct: purchased Corning Life Sciences
Description: as §3, §2

[19] = target: T7, human cDNA-expressed UGT2B17 (Homo sapiens, UniProt O75795); assay: Enzyme kinetics of M1 glucuronidation to M15 in cDNA-expressed UGT2B17; assay type: in vitro ADME; conditions: formation of M15 from M1, UGT2B17
T7 construct: purchased Corning Life Sciences
Description: as §3, §2

[20] = formation of the labelled metabolite from JP-1366, CYP2C9
[21] = formation of the labelled metabolite from JP-1366, CYP2C19
[22] = formation of the labelled metabolite from JP-1366, CYP2D6
[23] = formation of the labelled metabolite from JP-1366, CYP3A4
[24] = formation of the labelled metabolite from JP-1366, CYP3A5

T2 sequence (P33261 whole entry): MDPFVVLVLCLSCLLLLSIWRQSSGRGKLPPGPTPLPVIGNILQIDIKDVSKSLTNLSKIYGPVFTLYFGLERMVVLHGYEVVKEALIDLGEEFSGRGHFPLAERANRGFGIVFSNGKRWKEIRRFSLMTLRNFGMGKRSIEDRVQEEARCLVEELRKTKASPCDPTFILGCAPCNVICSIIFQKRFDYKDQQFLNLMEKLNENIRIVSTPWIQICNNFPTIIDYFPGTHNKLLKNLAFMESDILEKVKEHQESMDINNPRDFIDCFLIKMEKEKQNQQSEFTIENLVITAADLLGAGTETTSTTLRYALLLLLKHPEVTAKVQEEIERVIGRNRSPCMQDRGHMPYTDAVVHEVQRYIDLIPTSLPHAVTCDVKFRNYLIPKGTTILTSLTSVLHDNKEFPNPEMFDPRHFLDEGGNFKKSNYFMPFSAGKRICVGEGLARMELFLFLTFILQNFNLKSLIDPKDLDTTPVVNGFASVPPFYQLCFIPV
T5 sequence (P20815 whole entry): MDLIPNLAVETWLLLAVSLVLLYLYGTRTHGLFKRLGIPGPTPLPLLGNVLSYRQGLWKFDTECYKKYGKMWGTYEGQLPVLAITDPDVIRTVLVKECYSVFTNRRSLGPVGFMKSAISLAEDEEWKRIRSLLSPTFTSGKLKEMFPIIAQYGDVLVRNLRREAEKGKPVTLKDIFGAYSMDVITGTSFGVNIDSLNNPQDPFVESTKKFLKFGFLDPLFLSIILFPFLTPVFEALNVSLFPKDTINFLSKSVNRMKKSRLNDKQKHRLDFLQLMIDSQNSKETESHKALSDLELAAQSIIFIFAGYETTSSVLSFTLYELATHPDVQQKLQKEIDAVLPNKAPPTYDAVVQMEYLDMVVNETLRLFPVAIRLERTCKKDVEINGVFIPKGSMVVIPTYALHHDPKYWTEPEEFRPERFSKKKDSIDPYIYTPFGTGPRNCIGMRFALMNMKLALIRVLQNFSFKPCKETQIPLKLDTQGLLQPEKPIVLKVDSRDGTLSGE
T3 sequence (P10635 whole entry): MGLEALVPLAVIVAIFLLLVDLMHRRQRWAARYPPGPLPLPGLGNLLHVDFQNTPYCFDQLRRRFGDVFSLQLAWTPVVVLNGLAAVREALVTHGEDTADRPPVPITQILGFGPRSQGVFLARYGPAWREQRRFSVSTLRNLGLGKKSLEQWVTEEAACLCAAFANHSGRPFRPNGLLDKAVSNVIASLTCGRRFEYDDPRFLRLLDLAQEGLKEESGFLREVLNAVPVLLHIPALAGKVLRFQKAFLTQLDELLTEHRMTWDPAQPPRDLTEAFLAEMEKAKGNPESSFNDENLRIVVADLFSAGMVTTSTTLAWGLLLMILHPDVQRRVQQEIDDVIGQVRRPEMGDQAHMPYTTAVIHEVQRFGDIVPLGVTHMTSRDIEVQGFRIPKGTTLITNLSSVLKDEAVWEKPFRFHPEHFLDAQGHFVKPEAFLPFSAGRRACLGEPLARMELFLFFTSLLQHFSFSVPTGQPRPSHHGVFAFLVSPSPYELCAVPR
T1 sequence (P11712 whole entry): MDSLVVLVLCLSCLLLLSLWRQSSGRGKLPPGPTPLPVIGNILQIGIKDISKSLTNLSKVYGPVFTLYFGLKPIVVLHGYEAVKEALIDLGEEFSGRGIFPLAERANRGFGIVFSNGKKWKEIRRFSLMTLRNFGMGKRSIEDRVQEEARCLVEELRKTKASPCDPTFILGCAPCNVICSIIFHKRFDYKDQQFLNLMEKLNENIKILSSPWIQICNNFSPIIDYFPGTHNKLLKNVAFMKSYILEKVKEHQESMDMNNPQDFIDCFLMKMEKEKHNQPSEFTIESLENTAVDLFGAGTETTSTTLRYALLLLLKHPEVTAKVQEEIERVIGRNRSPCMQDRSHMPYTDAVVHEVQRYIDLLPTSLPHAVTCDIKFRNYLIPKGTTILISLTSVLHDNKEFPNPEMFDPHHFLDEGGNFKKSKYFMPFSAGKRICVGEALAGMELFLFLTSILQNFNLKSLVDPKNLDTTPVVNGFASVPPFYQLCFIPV
T4 sequence (P08684 whole entry): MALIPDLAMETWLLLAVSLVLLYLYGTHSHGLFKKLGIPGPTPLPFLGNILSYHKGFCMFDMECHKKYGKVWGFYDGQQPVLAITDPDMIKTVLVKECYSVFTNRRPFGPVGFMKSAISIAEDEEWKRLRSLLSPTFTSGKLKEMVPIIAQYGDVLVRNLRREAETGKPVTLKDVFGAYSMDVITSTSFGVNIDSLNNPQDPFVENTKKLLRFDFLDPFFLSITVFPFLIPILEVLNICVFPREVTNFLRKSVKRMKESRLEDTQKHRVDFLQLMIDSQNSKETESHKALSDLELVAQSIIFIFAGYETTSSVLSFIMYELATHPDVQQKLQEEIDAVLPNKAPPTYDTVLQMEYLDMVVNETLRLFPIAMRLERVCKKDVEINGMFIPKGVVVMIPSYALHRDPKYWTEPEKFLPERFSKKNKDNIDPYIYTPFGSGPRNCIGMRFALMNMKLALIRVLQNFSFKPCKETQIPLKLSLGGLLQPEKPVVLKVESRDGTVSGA
T6 sequence (P16662 24-529): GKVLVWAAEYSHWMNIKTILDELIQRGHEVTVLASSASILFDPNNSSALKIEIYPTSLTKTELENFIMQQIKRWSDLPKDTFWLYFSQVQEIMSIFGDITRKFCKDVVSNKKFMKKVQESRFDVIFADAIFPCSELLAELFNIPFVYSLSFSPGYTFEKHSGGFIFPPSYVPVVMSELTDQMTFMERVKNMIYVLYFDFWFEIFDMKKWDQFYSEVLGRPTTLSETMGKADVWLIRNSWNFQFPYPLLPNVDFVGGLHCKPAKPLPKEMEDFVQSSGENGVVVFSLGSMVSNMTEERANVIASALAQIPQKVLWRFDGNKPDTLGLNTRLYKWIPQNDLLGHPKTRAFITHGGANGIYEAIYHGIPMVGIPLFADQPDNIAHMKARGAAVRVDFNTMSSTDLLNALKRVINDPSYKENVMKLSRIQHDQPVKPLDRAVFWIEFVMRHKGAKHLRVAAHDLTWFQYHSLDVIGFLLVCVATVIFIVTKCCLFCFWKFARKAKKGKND
T7 sequence (O75795 24-530): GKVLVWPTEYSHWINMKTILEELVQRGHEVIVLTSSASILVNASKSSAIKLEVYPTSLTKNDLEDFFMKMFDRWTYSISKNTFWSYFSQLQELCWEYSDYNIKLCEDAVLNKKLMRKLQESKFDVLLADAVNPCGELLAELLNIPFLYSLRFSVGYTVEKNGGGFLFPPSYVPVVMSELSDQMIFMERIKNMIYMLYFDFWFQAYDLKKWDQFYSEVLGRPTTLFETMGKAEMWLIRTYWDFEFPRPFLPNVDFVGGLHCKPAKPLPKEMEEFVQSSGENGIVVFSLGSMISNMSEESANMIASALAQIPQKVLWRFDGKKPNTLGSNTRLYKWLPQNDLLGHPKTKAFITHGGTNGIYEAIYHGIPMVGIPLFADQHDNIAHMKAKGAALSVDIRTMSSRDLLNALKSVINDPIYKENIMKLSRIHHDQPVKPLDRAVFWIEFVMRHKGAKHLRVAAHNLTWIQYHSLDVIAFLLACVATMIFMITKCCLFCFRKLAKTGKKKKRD

For `CNCc1cn(S(=O)(=O)c2cccc(F)c2)c(-c2ccc(F)cc2F)c1OC` [Fexuprazan], the “contribution of CYP3A4 to formation of M11 (hydroxylation)” value (CYP3A4 [1]) is given as over 60%, the “contribution of CYP3A4 to formation of M14 (oxidative deamination)” value (CYP3A4 [1]) is given as “more than 80%” and the “erosive esophagitis healing versus esomeprazole 40 mg” value (erosive esophagitis) is given as “non-inferior”. For the same molecule, the tolerability [2] was “well tolerated”.

In the case of `COc1ccc2[nH]c([S+]([O-])Cc3ncc(C)c(OC)c3C)nc2c1` (centres unmarked) [omeprazole], the “plasma exposure in poor metabolizers with a CYP2C19 mutation” value [3] is given as “five-fold higher”.

In the case of `[F-].[Na+]` [NaF], the “inhibition of formation of M23 from JP-1366” value (esterase; 100 μM NaF) is reported as 18.9% ± 3.9% and the “inhibition of formation of M23 from JP-1366” value (esterase; 1000 μM NaF) is reported as 73.3% ± 0.3%.

For `Cc1nc2cc(C(=O)N(C)C)cc(O[C@H]3CCOc4cc(F)cc(F)c43)c2[nH]1` [tegoprazan], the IC50 (porcine H^+/K^+-ATPase) is listed as 0.53 µM, the Cmax (gastric pH [4]; 100 mg once daily, day 1) is listed as 1413 ± 24.7 ng/mL and the Cmax (gastric pH [4]; 100 mg once daily, day 7) is listed as 845.2 ± 40.7 ng/mL. The “decrease of Cmax after repeated administration compared with a single dose” value (gastric pH [4]; 100 mg once daily) was 40%, the “% time pH > 4 over a 24 h period” value (gastric pH [4]; repeated oral dose of 100 mg) was 70.4% and the “% time pH > 4 over a 24 h period” value (gastric pH [4]; single oral dose of 50 mg, six healthy subjects) was 48.9%. For the same molecule, the “% time pH > 4 over a 24 h period” value (gastric pH [5]) was 66.0 ± 15.7% and the “contribution of CYP3A4 to metabolism to active metabolite M1” value (CYP3A4 [6]) was “about 75%”.

In the case of `Cc1nc2c(N)cc(C(=O)N3CCC3)cn2c1C` [M6, (8-amino-2,3-dimethylimidazo[1,2-a]pyridin-6-yl)(azetidin-1-yl)methanone], the “Hepatocytes (species in which the metabolite was found)” value (shortened to “Hepatocytes”) [7] is reported as “H, D, Mk, M, R”, the CLint [8, 20] is reported as 0.0070 μL/min/pmol CYP and the “n (Hill coefficient)” value [8, 20] is reported as 0.7. The “Contribution (%)” value ([8]; relative contribution of CYP2C9 to formation of the labelled metabolite) was 2.8%, the CLint [9, 21] was 0.0023 μL/min/pmol CYP and the “n (Hill coefficient)” value [9, 21] was 0.6. For the same molecule, the “Contribution (%)” value ([9]; relative contribution of CYP2C19 to formation of the labelled metabolite) was 0.1%, the CLint [10, 22] was 0.0015 μL/min/pmol CYP and the “n (Hill coefficient)” value [10, 22] was 0.7. For the same molecule, the “Contribution (%)” value ([10]; relative contribution of CYP2D6 to formation of the labelled metabolite) was 0.1%, the CLint [11, 23] was 0.77 μL/min/pmol CYP and the “n (Hill coefficient)” value [11, 23] was 1.8. The “Contribution (%)” value ([11]; relative contribution of CYP3A4 to formation of the labelled metabolite) was 28.1%, the CLint [12, 24] was 0.41 μL/min/pmol CYP and the “n (Hill coefficient)” value [12, 24] was 1.5. For the same molecule, the “Contribution (%)” value ([12]; relative contribution of CYP3A5 to formation of the labelled metabolite) was 68.9%, the Vmax [13] was 798.8 pmol/min/mg protein and the Ki ([13]; substrate inhibition kinetics, formation of the labelled metabolite, HLM) was 105 µM. For the same molecule, the “contribution of CYP3A4/5 to formation of the metabolite from JP-1366” value (CYP3A4/5) was 97.0%.

`CC(C)NCC(O)COc1cccc2ccccc12` (centres unmarked) [Propranolol, reference compound] showed a Papp A→B at 1 h, 4 µM ([14]; Caco-2, pH 7.4) of 9.75 ± 0.68 ×10⁻⁶ cm/s, a Papp B→A at 1 h, 4 µM ([14]; Caco-2, pH 7.4) of 12.2 ± 1.51 ×10⁻⁶ cm/s and an efflux ratio at 1 h, 4 µM ([14]; pH 7.4, Caco-2, mean Papp,BA / mean Papp,AB, read-out: ER) of 1.3.

For `Cc1cccc(C)c1CNc1cc(C(=O)O)cn2c(C)c(C)nc12` [M23, 8-((2,6-dimethylbenzyl)amino)-2,3-dimethylimidazo[1,2-a]pyridine-6-carboxylic acid], the “Hepatocytes” value [7] was “H, D, M, R” and the Vmax [13] was 23.2 pmol/min/mg protein.

For `CNCc1cc(-c2ccccc2F)n(S(=O)(=O)c2cccnc2)c1` [Vonoprazan], the pKa [15] is listed as 9.37.

In the case of `COc1ccc2nc([S@@+]([O-])Cc3ncc(C)c(OC)c3C)[nH]c2c1` [esomeprazole, reference compound], the “% time pH > 4.0 over a period of 24 h” value (gastric pH [16]; MAD) is listed as 56.56% ± 22.47%, the “% time pH > 4.0 over a period of 24 h” value (gastric pH [16]; SAD) is listed as 72.06% ± 13.43% and the “% time pH > 4 at nighttime” value (gastric pH [16]; repeated 40 mg dose) is listed as 56.56% ± 22.47%.

For `Cc1cccc(COC2OC(C(=O)O)C(O)C(O)C2O)c1CNc1cc(C(=O)N2CCC2)cn2c(C)c(C)nc12` (centres unmarked) [M15], the “Hepatocytes” value [7] was “H, D, Mk, M, R”, the “detection of metabolite after incubation of JP-1366 in human liver microsomes with NADPH” value (human liver microsomes; 5 μM JP-1366) was “not detected” and the CLint [17] was 1.29 μL/min/mg Protein. For the same molecule, the Vmax [17] was 74.9 pmol/min/mg Protein, the “n (Hill coefficient)” value [17] was 1.0 and the CLint [18] was 0.60 μL/min/mg Protein. For the same molecule, the “n (Hill coefficient)” value [18] was 0.8, the CLint [19] was 1.27 μL/min/mg Protein and the Ki ([19]; substrate inhibition) was 59 µM.

For `CCCC(C(=O)OCCN(CC)CC)(c1ccccc1)c1ccccc1` [SKF-525A, reference compound], the “effect on formation of M23 from JP-1366” value (human liver microsomes; SKF-525A 10 μM and 100 μM, human liver microsomes) was “not inhibited”.
